Target: T1, B1R of the rat (Rattus norvegicus, UniProt P97583)
T1 construct: expressed in transfected cells; host or cells: CHO K1 cells (rB1R cells)
T1 sequence (P97583 1-337): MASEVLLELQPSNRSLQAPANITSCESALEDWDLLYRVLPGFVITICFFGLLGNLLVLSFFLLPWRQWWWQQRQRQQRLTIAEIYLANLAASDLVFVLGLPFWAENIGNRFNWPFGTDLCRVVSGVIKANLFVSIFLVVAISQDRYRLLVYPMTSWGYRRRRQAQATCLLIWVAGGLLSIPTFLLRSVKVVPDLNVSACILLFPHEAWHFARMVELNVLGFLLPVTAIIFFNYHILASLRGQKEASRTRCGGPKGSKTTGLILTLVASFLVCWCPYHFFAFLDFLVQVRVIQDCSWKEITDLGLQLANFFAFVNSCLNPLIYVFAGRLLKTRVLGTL
Experiment: FLIPR Ca2+ influx assay, B1R antagonism, rat (rB1R CHO K1 cells)
Assay type: cell-based
Conditions: test substance 10 μM, CHO K1 cells stably transfected with rat B1R, agonist Des-Arg9-bradykinin at EC80, % inhibition compared with maximum achievable inhibition; for inhibition at 10 µM: read-out: B1R antagonism, rat [10 μM] % inhibition
Protocol: The agonistic or antagonistic action of substances can be quantified on the bradykinin receptor 1 (B1R) of the species human and rat using ectopically expressing cell lines (CHO K1 cells) and with the aid of a Ca^2+-sensitive dye (Fluo-4) using a fluorescent imaging plate reader (FLIPR). The indication in % activation is based on the Ca^2+ signal after addition of Lys-Des-Arg^9-bradykinin (0.5 nM) or Des-Arg^9-bradykinin (100 nM). Antagonists lead to suppression of the Ca^2+ influx after the addition of the agonist. % Inhibition compared with the maximum achievable inhibition is indicated.
The agonistic or antagonistic action of substances can be determined on the bradykinin receptor 1 (B1R) of the species human and rat using the following assay. According to this assay, the Ca^2+ influx through the channel is quantified with the aid of a Ca^2+-sensitive dye (Fluo-4 type, Molecular Probes Europe BV, Leiden, Netherlands) using a Fluorescent Imaging Plate Reader (FLIPR, Molecular Devices, Sunnyvale, USA).
Chinese hamster ovary cells (CHO K1 cells) which have been stably transfected with the human B1R gene (hB1R cells) or with the B1R gene of the rat (rB1R cells) are used. For functional studies, the cells are plated out on black 96-well plates having a clear base (BD Biosciences, Heidelberg, Germany or Greiner, Frickenhausen, Germany) in a density of 20,000-35,000 cells/well. The cells are incubated overnight at 37° C. and with 5% CO2 in culture medium (hB1R cells: Nutrient Mixture Ham's F12, Gibco Invitrogen GmbH, Karlsruhe, Germany or DMEM, Sigma-Aldrich, Taufkirchen, Germany; rB1R cells: D-MEM/F12, Gibco Invitrogen GmbH, Karlsruhe, Germany), with 10 vol. % FBS (fetal bovine serum, Gibco Invitrogen GmbH, Karlsruhe, Germany or PAN Biotech GmbH, Aidenbach, Germany).
On the following day, the cells are loaded for 60 minutes at 37° C. with 2.13 μM Fluo-4 (Molecular Probes Europe BV, Leiden, Netherlands) in HBSS buffer (Hank's buffered saline solution, Gibco Invitrogen GmbH, Karlsruhe, Germany) […] (Sigma-Aldrich, Taufkirchen, Germany) and 10 mM HEPES (Sigma-Aldrich, Taufkirchen, Germany). The plates are then washed twice with HBSS buffer, and HBSS buffer additionally containing 0.1% BSA (bovine serum albumin; Sigma-Aldrich, Taufkirchen, Germany), 5.6 mM glucose and 0.05% gelatin (Merck KGaA, Darmstadt, Germany) is added to the plates. After incubation for a further 20 minutes at room temperature, the plates are inserted into the FLIPR for Ca^2+ measurement.
Alternatively, washing is carried out with buffer A (15 mM HEPES, 80 mM NaCl, 5 mM KCl, 1.2 mM CaCl2, 0.7 mM MgSO4, 2 g/l glucose, 2.5 mM probenecid) followed by loading with buffer A with added 2.5 μM Fluo-4 and 0.025% Pluronic F127 (Sigma-Aldrich, Taufkirchen, Germany). The cells are then washed twice with buffer A and incubated for 30 minutes at room temperature with buffer A additionally containing 0.05% BSA and 0.05% gelatin and are then inserted into the FLIPR for Ca^2+ measurement.
The Ca^2+-dependent fluorescence is measured before and after the addition of substances (λex=488 nm, λem=540 nm). Quantification is carried out by measuring the highest fluorescence intensity (FC, fluorescence counts) over time.
The FLIPR protocol consists of two substance additions. Test substances (10 μM) are first pipetted onto the cells and the Ca^2+ influx is compared with the control (hB1R: Lys-Des-Arg^9-bradykinin >=50 nM; rB1R: Des-Arg^9-bradykinin 10 μM). This gives the activation in %, based on the Ca^2+ signal after addition of Lys-Des-Arg^9-bradykinin (>=50 nM) or Des-Arg^9-bradykinin (10 μM). After 10-20 minutes' incubation, Lys-Des-Arg^9-bradykinin (hB1R) or Des-Arg^9-bradykinin (rB1R) is applied in the concentration of the EC80, and the influx of Ca^2+ is likewise determined. Antagonists lead to suppression of the Ca^2+ influx. The % inhibition compared with the maximum achievable inhibition is calculated. […]

Structure (SMILES)	inhibition at 10 µM [%]	B1R antagonism, rat [10 μM] % inhibition [%]
COc1cc(C)c(S(=O)(=O)N2CCCCC2COCC(=O)N2CCC(CCCN3CCCC3)(c3ccncc3)CC2)c(C)c1 (stereo not shown) [Example 28, 2-[[1-[(4-Methoxy-2,6-dimethyl-phenyl)sulfonyl]-piperidin-2-yl]-methoxy]-1-[4-pyridin-4-yl-4-(3-pyrrolidin-1-yl-propyl)-piperidin-1-yl]-ethanone]	97	
COc1cc(C)c(S(=O)(=O)N(C)CCOCC(=O)N2CCC(CCCN3CCCC3)(c3ccncc3)CC2)c(C)c1 [Example 30, 4-Methoxy-N,2,6-trimethyl-N-[2-[2-oxo-2-[4-pyridin-4-yl-4-(3-pyrrolidin-1-yl-propyl)-piperidin-1-yl]-ethoxy]-ethyl]-benzenesulfonic acid amide]	100	
COc1cc(C)c(S(=O)(=O)N(C)CCOCC(=O)N2CCC(CCCN3CCCC3)(c3ccncc3)CC2)c(C)c1C [Example 32, 4-Methoxy-N,2,3,6-tetramethyl-N-[2-[2-oxo-2-[4-pyridin-4-yl-4-(3-pyrrolidin-1-yl-propyl)-piperidin-1-yl]-ethoxy]-ethyl]-benzenesulfonic acid amide]	100	
COc1cc(C)c(S(=O)(=O)N(CCOCC(=O)N2CCC(CCCN3CCCC3)(c3ccncc3)CC2)Cc2ccccc2)c(C)c1 [Example 39, N-Benzyl-4-Methoxy-2,6-dimethyl-N-[2-[2-oxo-2-[4-pyridin-4-yl-4-(3-pyrrolidin-1-yl-propyl)-piperidin-1-yl]-ethoxy]-ethyl]-benzenesulfonic acid amide]	99	
COc1cc(C)c(S(=O)(=O)N(CCOCC(=O)N2CCC(CCCN3CCCC3)(c3ccncc3)CC2)Cc2ccccc2)c(C)c1 [Example 40, N-Benzyl-4-Methoxy-2,6-dimethyl-N-[2-[2-oxo-2-[4-pyridin-4-yl-4-(3-pyrrolidin-1-yl-propyl)-piperidin-1-yl]-ethoxy]-ethyl]-benzenesulfonic acid amide]		100
O=C(COCC1CCCCN1S(=O)(=O)c1ccccc1C(F)(F)F)N1CCC(CCCN2CCCC2)(c2ccncc2)CC1 (stereo not shown) [Example 43, 1-[4-Pyridin-4-yl-4-(3-pyrrolidin-1-yl-propyl)-piperidin-1-yl]-2-[[1-[[2-(trifluoromethyl)-phenyl]sulfonyl]-piperidin-2-yl]-methoxy]-ethanone]	101	
O=C(COCC1CCCCN1S(=O)(=O)c1ccccc1C(F)(F)F)N1CCC(CCCN2CCCC2)(c2ccncc2)CC1 (stereo not shown) [Example 44, 1-[4-Pyridin-4-yl-4-(3-pyrrolidin-1-yl-propyl)-piperidin-1-yl]-2-[[1-[[2-(trifluoromethyl)-phenyl]sulfonyl]-piperidin-2-yl]-methoxy]-ethanone]		100
COc1cc(C)c(S(=O)(=O)N2CCCCC2CCOCC(=O)N2CCC(CCCN3CCCC3)(c3cccnc3)CC2)c(C)c1 (stereo not shown) [Example 45, 2-[2-[1-[(4-Methoxy-2,6-dimethyl-phenyl)sulfonyl]-piperidin-2-yl]-ethoxy]-1-[4-pyridin-3-yl-4-(3-pyrrolidin-1-yl-propyl)-piperidin-1-yl]-ethanone]	100	
COc1cc(C)c(S(=O)(=O)N2CCCCC2CCOCC(=O)N2CCC(CCCN3CCCC3)(c3cccnc3)CC2)c(C)c1 (stereo not shown) [Example 46, 2-[2-[1-[(4-Methoxy-2,6-dimethyl-phenyl)sulfonyl]-piperidin-2-yl]-ethoxy]-1-[4-pyridin-3-yl-4-(3-pyrrolidin-1-yl-propyl)-piperidin-1-yl]-ethanone]		101
CN(CCCC(=O)N1CCC(CCCN2CCCC2)(c2cccnc2)CC1)S(=O)(=O)c1cccc(C(F)(F)F)c1 [Example 47, N-Methyl-N-[4-Oxo-4-[4-pyridin-3-yl-4-(3-pyrrolidin-1-yl-propyl)-piperidin-1-yl]-butyl]-3-(trifluoromethyl)-benzenesulfonic acid amide]	53	
